Reference: patent publication EP4603105A1, “PHARMACEUTICAL COMPOSITION CONTAINING CYCLIC COMPOUND HAVING SELECTIVE KRAS INHIBITORY EFFECT AGAINST HRAS AND NRAS” (CHUGAI SEIYAKU KABUSHIKI KAISHA, priority 2022, dated 2024)
Like-named read-outs stand apart in the source and are kept apart here. Where a SMILES comes first, the peptide text is derived from it. Bridges are numbered along the chain shown (N, C = ends). [ ]: non-standard residue; d: D form. The star is where a group is joined. hPhe(3-Cl-4-CF3) = N[C@@H](CCc1ccc(C(F)(F)F)c(Cl)c1)C(=O)O; NPrPhe(4-CF3) = CCCN[C@@H](Cc1ccc(C(F)(F)F)cc1)C(=O)O; NMePhe(4-Me) = CN[C@@H](Cc1ccc(C)cc1)C(=O)O; NMeGly(cPent) = CN[C@H](C(=O)O)C1CCCC1; Pro(4,4-F2) = O=C(O)[C@@H]1CC(F)(F)CN1; NMeD = CN[C@@H](CC(=O)O)C(=O)O; NMeL = CN[C@@H](CC(C)C)C(=O)O; Pip = O=C(O)[C@@H]1CCCCN1; Morpholide = C1CN(*)CCO1; NMeA = CN[C@@H](C)C(=O)O; Ac5c = NC1(C(=O)O)CCCC1; Aze = O=C(O)[C@@H]1CCN1; NEtG = CCNCC(=O)O; Sar = CNCC(=O)O

Tests used:
[1] = test system: human lung cancer strain NCI-H441; assay type: cell-based
Outline: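 Readout: […] after the ATP-based reagent. Compound: serial dilutions in dimethyl sulfoxide.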

[2] = target: HRAS wild-type protein (Homo sapiens, UniProt P01112); assay: Binding to HRAS by surface plasmon resonance (SPR), KD and KD ratio to KRAS
Outline: (§1)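 GDP-bound biotin-Avi RAS captured at ~100–300 RU, 30°C, pH 7.4 HBS containing 10 µM GDP, 10 mM MgCl2, 1 mM DTT, 0.01% Tween 20 and 4% DMSO. KD by 1:1 fitting.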

[3] = target: GDP-bound NRAS wild-type protein (Homo sapiens, UniProt P01111); assay: Binding to NRAS by surface plasmon resonance (SPR), KD and KD ratio to KRAS
Outline: as §1

[4] = ratio of the KD value with respect to HRAS wild-type protein to the KD value with respect to KRAS
[5] = ratio of the KD value with respect to GDP-bound NRAS wild-type protein to the KD value with respect to KRAS
[6] = ratio of KD for HRAS wild-type protein to KD for KRAS
[7] = ratio of KD for GDP-bound NRAS wild-type protein to KD for KRAS
[8] = ratio of KD value for HRAS wild-type protein to KD value for KRAS (SPR)
[9] = ratio of KD value for GDP-bound NRAS wild-type protein to KD value for KRAS (SPR)

Sequence of GDP-bound NRAS wild-type protein (P01111 whole entry): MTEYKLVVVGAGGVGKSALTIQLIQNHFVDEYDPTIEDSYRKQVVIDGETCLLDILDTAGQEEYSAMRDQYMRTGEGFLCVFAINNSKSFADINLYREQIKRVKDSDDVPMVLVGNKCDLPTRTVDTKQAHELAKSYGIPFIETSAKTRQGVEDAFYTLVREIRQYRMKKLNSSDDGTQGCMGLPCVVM
Sequence of HRAS wild-type protein (P01112 whole entry): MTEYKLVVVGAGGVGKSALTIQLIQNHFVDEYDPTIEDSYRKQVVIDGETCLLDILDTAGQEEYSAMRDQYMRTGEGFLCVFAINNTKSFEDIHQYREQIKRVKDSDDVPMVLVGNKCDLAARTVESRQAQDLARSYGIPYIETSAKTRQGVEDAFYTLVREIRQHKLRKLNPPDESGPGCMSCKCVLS

SMILES | IC50 [1] [nM] | HRAS /KRAS [2, 4] | NRAS /KRAS [3, 5] | HRAS /KRAS [2, 6] | NRAS /KRAS [3, 7] | HRAS /KRAS [2, 8] | NRAS /KRAS [3, 9] | IC50 ([1]; NCI-H441 cells, 4 days, CellTiter-Glo, read-out: NCl-H441 IC50) [nM]
CC[C@H](C)[C@@H]1NC(=O)[C@H](CC(C)C)N(C)C(=O)C[C@@H](C(=O)N(C)C)N(C)C(=O)[C@H](C2CCCC2)N(C)C(=O)C2(CCCC2)NC(=O)[C@@H]2C[C@H](C)CN2C(=O)[C@H](CCc2cc(F)c(C(F)(F)F)c(F)c2)NC(=O)CN(C)C(=O)[C@H](Cc2ccc(C(F)(F)F)cc2)N2CC/C=C\C[C@@H](C2=O)N(C)C(=O)CN(C)C1=O [PP2268] | 9.8 | A (a compound having 10 or more and less than 20 is denoted as A) | A (a compound having 10 or more and less than 20 is denoted as A) | – | – | – | – | –
CC[C@H](C)[C@@H]1NC(=O)[C@H](CC(C)C)N(C)C(=O)C[C@@H](C(=O)N2CCOCC2)N(C)C(=O)[C@H](C2CCCC2)N(C)C(=O)C2(CCCC2)NC(=O)[C@@H]2C[C@H](O)CN2C(=O)[C@H](CCc2cc(F)c(C(F)(F)F)c(F)c2)NC(=O)CN(C)C(=O)[C@H](Cc2ccc(C(F)(F)F)cc2)N2CCCC[C@@H](C2=O)N(C)C(=O)CN(C)C1=O [PP0556] | 21 | B (a compound having 3 or more and less than 10 is denoted as B) | C (A compound having a KD ratio of 0.1 or more and less than 3 is denoted as C) | – | – | – | – | –
CCCN1C(=O)CN(C)C(=O)CNC(=O)[C@H]([C@@H](C)CC)NC(=O)[C@H](CC(C)C)N(C)C(=O)C[C@@H](C(=O)N(C)C)NC(=O)[C@H](C2CCCC2)N(C)C(=O)C2(CCCC2)NC(=O)[C@@H]2CCCN2C(=O)[C@H](CCc2ccc(C(F)(F)F)c(Cl)c2)NC(=O)CN(C)C(=O)[C@@H]1Cc1ccc(C(F)(F)F)cc1 [PP0361] ([NMeL]IG[Sar][NPrPhe(4-CF3)][Sar][hPhe(3-Cl-4-CF3)]P[Ac5c][NMeGly(cPent)]D-NMe2; lactam N-11) | 69 | – | – | C (A compound having a KD ratio of 0.1 or more and less than 3 is denoted as C) | B (a compound having 3 or more and less than 10 is denoted as B) | – | – | –
CCCN1C(=O)[C@@H]2CCN2C(=O)[C@H](C)N(C)C(=O)[C@H]([C@@H](C)CC)NC(=O)[C@H](CC(C)C)N(C)C(=O)C[C@@H](C(=O)N2CCOCC2)N(C)C(=O)[C@H](C2CCCC2)N(C)C(=O)C2(CCCC2)NC(=O)[C@@H]2CCCCN2C(=O)[C@H](CCc2ccc(C(F)(F)F)c(Cl)c2)NC(=O)CN(C)C(=O)[C@@H]1Cc1ccc(C(F)(F)F)cc1 [PP0284] ([NMeL]I[NMeA][Aze][NPrPhe(4-CF3)][Sar][hPhe(3-Cl-4-CF3)][Pip][Ac5c][NMeGly(cPent)][NMeD]-Morpholide; lactam N-11) | 29 | – | – | B (a compound having 3 or more and less than 10 is denoted as B) | C (A compound having a KD ratio of 0.1 or more and less than 3 is denoted as C) | – | – | –
CCO[C@@H]1C[C@H]2C(=O)NC3(CCC3)C(=O)N(C)[C@@H](C3CCCC3)C(=O)N(C)[C@H](C(=O)N3CCOCC3)CC(=O)N(C)[C@@H](CC(C)C)C(=O)N[C@@H]([C@@H](C)CC)C(=O)N(C)CC(=O)N(C)[C@H]3CCCCCN(C3=O)[C@@H](Cc3ccc(C(F)(F)F)cc3)C(=O)N(C)CC(=O)N[C@@H](CCc3cc(F)c(C(F)(F)F)c(F)c3)C(=O)N2C1 [PP0467] | 33.8 | B (a compound having 3 or more and less than 10 is denoted as B) | B (a compound having 3 or more and less than 10 is denoted as B) | – | – | – | – | –
CCCN1C(=O)CN(C)C(=O)CN(C)C(=O)[C@H]([C@@H](C)CC)NC(=O)[C@H](CC(C)C)N(C)C(=O)C[C@@H](C(=O)N2CCOCC2)NC(=O)[C@H](C2CCCC2)N(C)C(=O)C2(CCCC2)NC(=O)[C@@H]2CC(F)(F)CN2C(=O)[C@H](CCc2ccc(C(F)(F)F)c(Cl)c2)NC(=O)CN(C)C(=O)[C@@H]1Cc1ccc(C(F)(F)F)cc1 [PP0321] ([NMeL]I[Sar][Sar][NPrPhe(4-CF3)][Sar][hPhe(3-Cl-4-CF3)][Pro(4,4-F2)][Ac5c][NMeGly(cPent)]D-Morpholide; lactam N-11) | 55.7 | – | – | B (a compound having 3 or more and less than 10 is denoted as B) | B (a compound having 3 or more and less than 10 is denoted as B) | – | – | –
CC[C@H](C)[C@@H]1NC(=O)[C@H](CC(C)C)N(C)C(=O)C[C@@H](C(=O)N2CCOCC2)N(C)C(=O)[C@H](C2CCCC2)N(C)C(=O)C2(CCCC2)NC(=O)[C@@H]2CCCN2C(=O)[C@H](CCc2ccc(C(F)(F)F)c(Cl)c2)NC(=O)CN(CC)C(=O)[C@H](Cc2ccc(C)cc2)N(C)C(=O)[C@@H]2CCN2C(=O)[C@H](C)N(C)C1=O [PP0004] ([NMeL]I[NMeA][Aze][NMePhe(4-Me)][NEtG][hPhe(3-Cl-4-CF3)]P[Ac5c][NMeGly(cPent)][NMeD]-Morpholide; lactam N-11) | 52.9 | – | – | C (A compound having a KD ratio of 0.1 or more and less than 3 is denoted as C) | C (A compound having a KD ratio of 0.1 or more and less than 3 is denoted as C) | – | – | –
CCC[C@H]1C(=O)N[C@@H]([C@@H](C)CC)C(=O)N(C)CC(=O)N(C)[C@H]2C/C=C\CCN(C2=O)[C@@H](Cc2ccc(C)cc2)C(=O)N(C)CC(=O)N[C@@H](CCc2ccc(C(F)(F)F)c(OC)c2)C(=O)N2C[C@H](OCC)C[C@H]2C(=O)NC2(CC(C)(C)C2)C(=O)N(C)[C@@H](C2CCCC2)C(=O)N(C)[C@H](C(=O)N(C)C)CC(=O)N1C [PP1892] | 4.8 | – | – | – | – | B (a compound having 3 or more and less than 10 is denoted as B) | A (a compound having 10 or more and less than 20 is denoted as A) | –
CCO[C@@H]1C[C@H]2C(=O)NC3(CC(C)(C)C3)C(=O)N(C)[C@@H](C3CCCC3)C(=O)N(C)[C@H](C(=O)N(C)C)CC(=O)N(C)[C@@H](CC3CCC3)C(=O)N[C@@H]([C@@H](C)CC)C(=O)N(C)CC(=O)N(C)[C@H]3C/C=C\CCN(C3=O)[C@@H](Cc3ccc(C(F)(F)F)cc3)C(=O)N(C)CC(=O)N[C@@H](CCc3cc(F)c(Cl)c(F)c3)C(=O)N2C1 [PP1762] | 8.4 | – | – | – | – | A (a compound having 10 or more and less than 20 is denoted as A) | A (a compound having 10 or more and less than 20 is denoted as A) | –
CCO[C@@H]1C[C@H]2C(=O)N(C)C3(CCCC3)C(=O)N(C)[C@@H](C3CCCC3)C(=O)N(C)[C@H](C(=O)N(C)C)CC(=O)N(C)[C@@H](CC)C(=O)N[C@@H]([C@@H](C)CC)C(=O)N(C)CC(=O)N(C)[C@H]3C/C=C\CCN(C3=O)[C@@H](Cc3ccc(C)cc3)C(=O)N(C)CC(=O)N[C@@H](CCc3cc(F)c(C(F)(F)F)c(F)c3)C(=O)N2C1 [PP1806] | 4 | – | – | – | – | B (a compound having 3 or more and less than 10 is denoted as B) | A (a compound having 10 or more and less than 20 is denoted as A) | –
CCOC[C@H]1C(=O)N[C@@H]([C@@H](C)CC)C(=O)N(C)CC(=O)N(C)[C@H]2C/C=C\CCN(C2=O)[C@@H](Cc2ccc(OC)cc2)C(=O)N(C)CC(=O)N[C@@H](CCc2ccc(C(F)(F)F)c(OC)c2)C(=O)N2C[C@@H](C)C[C@H]2C(=O)NC2(CC(C)(C)C2)C(=O)N(C)[C@@H](C2CCCC2)C(=O)N(C)[C@H](C(=O)N(C)CC)CC(=O)N1C [PP2702] | – | – | – | B (a compound having 3 or more and less than 10 is denoted as B) | A (a compound having 10 or more and less than 20 is denoted as A) | – | – | 21.4
